# Assays:
# [1] = system: uropepsinogene; format: in vivo, human; settings: in vivo
# Description: (§1) Thus for example comparing CR 604 administered in capsules of 75 mg (6 per day), with Indometacin in capsules of 25 mg (6 per day), i.e. in approximately equimolecular doses on a group of 60 subjects treated (30 with CR 604 and 30 with Indometacin, one notes that (see Table 7):
# Gastric secretion of pepsin is increased by agents which irritate and damage the gastric mucosa.
# [2] = Pellets-induced granuloma test (cotton pellets); format: in vivo, rat; settings: rat
# Description: 1b. Pellets-induced granuloma test:
# Another important test for the evaluation of an anti-inflammatory is that of cotton pellets. This consists of planting a sterile cotton pellet under the rat's back skin.
# This pellet is left in situ for a week while the animals are treated daily with various doses of the drug being examined. Evaluation is effected by weighing the pellets taken at the given time and dried, comparing the weight of those of the treated animals with the checks.
# [3] = Osteolathyrism in the rabbit (aminoacetonitrile); format: in vivo; settings: rabbit
# Description: B. Tests in vivo: Osteolathyrism in the rabbit.
# Osteolathrism consists of inducing into young rabbits a dystrophy of the bone joint system, administering every day aminoacetonitrile by i.p. means, in the quantity of 100 mg/kg of body weight. With this treatment, in about 30 days, the following changes are shown in the rabbit:
# Loss of weight (related to the checks physiologically treated), ptosis of the auricular pavilion, loss of fur, deformation of the front and rear limbs, deterioration of the general condition.
# All this takes place because the aminoacetonitrile is a collagen tissue poison which changes the biochemical composition of the joint cartilages and the bones.
# An evaluation of the therapeutic activity can be made either by biochemical evaluation, i.e. by measuring the quantity of aminosugars in these tissues, or by considering only the general symptoms, which are proportional to the diminution of the aminosugars.
# In Table 5 this latter evaluation is reported, in which every symptom was evaluated by allotting it a number from 0 to 4, 4 indicating the maximum amount of damage and 0 indicating no damage.
# On Table 5 there are given the results of treatment evaluated on the 25th day, comparing the groups treated only with a physiological solution, only with aminoacetonitrile, with aminoacetonitrile and CR 604, with aminoacetonitrile and Indometacin in the prescribed doses.
# Each group consisted of 8 animals.
# [4] = system: fibroblast culture; experiment: Production of mucopolysaccharides from fibroblast culture in vitro; format: cell-based; settings: in vitro culture of collagen tissue
# Description: a. Tests in vitro: These tests consist of the cultivation in vitro, i.e., outside the organism, of tissue of the same embriological origin in relation to the osteoarticular. Upon the growth of this tissue there is then measured the activities of the various drugs. The units of measurement of these activities is the production of glucosaminoglicanes (mucopolysaccharides measured by the turbidimetric method).
# The compounds which form the subject of this invention were evaluated according to this test and compared with known anti-inflammatories.
# [5] = system: urinary calcium; format: in vivo, human; settings: in vivo
# Description: as §1
# c. […] Excretion of calcium is related to the destruction of the fibrils of the proteic bone matrix which thus also loses the calcium deposited upon it.
# The administration of known anti-inflammatories brings about the lysis of these fibrils with loss of calcium.
# [6] = Tolerance in animals, subacute and chronic; format: in vivo; settings: up to 6 months administration to animals, quantities greater than those recommended for human beings
# Excerpt: For these substances, and particularly for CR 604, tolerance tests were made, subacute and chronic, by up to 6 months administration to the animals.
# [7] = Irritant and ulceroid (gastrolesive) activity on the gastric mucosa; settings: rat, in vivo, po
# Description: 4. Irritant and ulceroid activity on the gastric mucosa
# The experimental evaluation of this activity was made on rats, by the method here reported:
# The compound is administered orally to rats which have fasted for 12 hours, the animals being killed 4 hours after the administration.
# Regarded as positive, i.e. with stomach damage, are those animals which have at least one haemorrhage point on the stomach wall.
# By ED50 there is meant that dose of the drug which can […] in 50% of the animals treated, the formation of these haemorrhages.
# In Table 6 there are compared CR 604 and Indometacin, since the latter is, amongst them all, the nearest to the anti-inflammatory activity values of CR 604.
smiles,measurement,setting,value
"CCCN(CCC)C(=O)C(CCC(=O)OCCCN1CCN(CCOC(=O)Cc2c(C)n(C(=O)c3ccc(Cl)cc3)c3ccc(OC)cc23)CC1)NC(=O)c1ccccc1 (racemic) [CR 604, N'-2-[1-(p-chlorobenzoyl)-5-methoxy-2-methyl-3-indoleacetoxy]ethyl-N-3-(N-benzoyl-N', N'-di-n-propyl-DL-isoglutaminoyl)-oxypropyl-piperazine]","uropepsinogene in urine, in words",[1],diminishes in the urine
same,"anti-inflammatory activity (granuloma test), in words",[2],high anti-inflammatory activity
same,"effect on aminoacetonitrile symptoms, in words",[3],greatly modifies these toxic symptoms
same,"effect on growth and production of mucopolysaccharides, in words",[4],does not harm
same,"destruction (lysis) of fibrils of proteic bone matrix, in words",[5],does not induce this destruction or reduces it
same,"excretion of urinary calcium, in words",[5],reduction in the excretion of urinary calcium
same,"tolerance, subacute and chronic",[6],well tolerated without any special anatomical or functional lesion
same,"gastrolesive dose, in words",[7],"so high as to be of no practical importance, being roughly equal to a fatal dose"

# Reference: US3985878A, “Anti-inflammatory and antirheumatic compounds and preparation” (priority 1974, dated 1976)
